Experimental data: patent publication US11464770B2, “Anticancer pharmaceutical composition” (NATIONAL CANCER CENTER, priority 2016, dated 2022)
Like-named read-outs stand apart in the source and are kept apart here.

Assays:
[1] = tested on: prostate cancer cell lines (e.g. DU145/TXR); assay: Cell based assay, cell viability (CellTiter-Glo), prostate cancer cell lines; details: Homo sapiens, 72 hours treatment, final concentration 0 to 2 μM
Method in brief: (§1)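 Plated cells (24 h) → compound to 0–2 μM final → 72 h → CellTiter-Glo ATP luminescence.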

[2] = tested on: lung cancer cell lines (e.g. NCI-H23, NCI-H1229); assay: Cell based assay, cell viability (CellTiter-Glo), lung cancer cell lines; details: Homo sapiens, 72 hours treatment, CellTiter-Glo
Method in brief: as §1

brain cancer cell lines = assay: Cell based assay, cell viability (CellTiter-Glo), brain cancer cell lines; details: Homo sapiens
neuroblastoma cell lines = assay: Cell based assay, cell viability (CellTiter-Glo), neuroblastoma cell lines; details: Homo sapiens; SH-SY5Y cell line
Method in brief: as §1

liver cancer cell lines = assay: Cell based assay, cell viability (CellTiter-Glo), liver cancer cell lines; details: Homo sapiens, SK-HEP1; SK-HEP-1 cell line
Method in brief: as §1

[3] = tested on: ovarian cancer cell lines; assay: Cell based assay, cell viability (CellTiter-Glo), ovarian cancer cell lines; details: Homo sapiens; OVCAR-3 cells
Method in brief: as §1

renal cancer cell lines = assay: Cell based assay, cell viability (CellTiter-Glo), renal cancer cell lines; details: Homo sapiens; ACHN cells
Method in brief: as §1

[4] = CWR22 cells, read-out: IC50, prostate cancer cell line CWR22
[5] = DU-145, DU145/TXR cells, read-out: IC50, prostate cancer cell line DU145/TXR
[6] = DU-145, DU145 cells, read-out: IC50, prostate cancer cell line DU145
[7] = LNcap cells, read-out: IC50, prostate cancer cell line LNcap
[8] = PC-3 cells, read-out: IC50, prostate cancer cell line PC-3
[9] = A549 cells, read-out: IC50, lung cancer cell line A549
[10] = DMS 114 cells, read-out: IC50, lung cancer cell line DMS 114
[11] = NCI-H23 cells, read-out: IC50, lung cancer cell line NCI-H23
[12] = NCI-H460 cells, read-out: IC50, lung cancer cell line NCI-H460
[13] = NCI-H522 cells, read-out: IC50, lung cancer cell line NCI-H522
[14] = NCI-H1299 cells, read-out: IC50, lung cancer cell line NCI-H1299
[15] = NCI-H1437 cells, read-out: IC50, lung cancer cell line NCI-H1437
[16] = U138-MG, U-138 MG cell line, read-out: IC50, Brain cancer cell line U-138 MG
[17] = T98G cell line, read-out: IC50, Brain cancer cell line T98G
[18] = U-251 MG cell line, read-out: IC50, Brain cancer cell line U-251 MG

Structure (SMILES)	IC50 [1, 4]	IC50 [1, 5]	IC50 [1, 6]	IC50 [1, 7]	IC50 [1, 8]	IC50 [2, 9]	IC50 [2, 10]	IC50 ([2]; MRC-5 cells, read-out: IC50)	IC50 [2, 11]	IC50 [2, 12]	IC50 [2, 13]	IC50 [2, 14]	IC50 [2, 15]	IC50 (brain cancer cell lines; [16])	IC50 (brain cancer cell lines; [17])	IC50 (brain cancer cell lines; [18])	IC50 (neuroblastoma cell lines)	IC50 (liver cancer cell lines)	IC50 [3]	IC50 (renal cancer cell lines)
CC(=O)c1c([S+]([O-])Cc2ccc(SC(F)(F)F)cc2)[nH]c2c(Br)ccc(Cl)c2c1=O (centres unmarked) [Compound 56, 3-acetyl-8-bromo-5-chloro-2-((4-((trifluoromethyl)thio)benzyl)sulfinyl)quinolin-4(1H)-one]	1550 nM	860 nM	1420 nM	1820 nM	1300 nM	1700 nM	> 2000 nM	1240 nM	1040 nM	1900 nM	> 2000 nM	> 2000 nM	> 10000 nM	1340 nM	> 10000 nM	1170 nM	> 2000 nM	1020 nM	1090 nM	> 2000 nM
CC(=O)c1c([S+]([O-])Cc2ccc([N+](=O)[O-])cc2)[nH]c2c(Cl)ccc(Cl)c2c1=O (centres unmarked) [Compound 57, 3-acetyl-5,8-dichloro-2-((4-nitrobenzyl)sulfinyl)quinolin-4(1H)-one]	> 2000 nM	> 2000 nM	> 2000 nM	> 2000 nM	> 2000 nM	> 2000 nM	> 2000 nM	> 2000 nM	1830 nM	> 2000 nM	> 2000 nM	> 2000 nM	> 10000 nM	> 10000 nM	> 10000 nM	> 2000 nM	> 2000 nM	> 2000 nM	> 2000 nM	> 2000 nM
COc1cc(C[S+]([O-])c2[nH]c3c(Br)ccc(Cl)c3c(=O)c2C(C)=O)cc(OC)c1 (centres unmarked) [Compound 59, 3-acetyl-8-bromo-5-chloro-2-((3,5-dimethoxybenzyl)sulfinyl)quinolin-4(1H)-one]	1560 nM	–	1490 nM	> 2000 nM	1640 nM	> 2000 nM	> 2000 nM	1030 nM	920 nM	1810 nM	> 2000 nM	1450 nM	> 10000 nM	1500 nM	> 10000 nM	1280 nM	> 2000 nM	910 nM	840 nM	> 2000 nM
CC(=O)c1c([S+]([O-])Cc2ccc(C(C)(C)C)cc2)[nH]c2c(Br)ccc(Cl)c2c1=O (centres unmarked) [Compound 60, 3-acetyl-8-bromo-2-((4-(tert-butyl)benzyl)sulfinyl)-5-chloroquinolin-4(1H)-one]	> 2000 nM	1260 nM	> 2000 nM	> 2000 nM	1820 nM	> 2000 nM	> 2000 nM	> 2000 nM	1370 nM	> 2000 nM	> 2000 nM	> 2000 nM	> 10000 nM	> 2000 nM	> 10000 nM	> 2000 nM	> 2000 nM	> 2000 nM	> 2000 nM	> 2000 nM
CC(=O)c1c([S+]([O-])Cc2ccc([S+]([O-])C(F)(F)F)cc2)[nH]c2c(Br)ccc(Cl)c2c1=O (centres unmarked) [Compound 64, 3-acetyl-8-bromo-5-chloro-2-((4-((trifluoromethyl)sulfinyl)benzyl)sulfinyl)quinolin-4(1H)-one]	1490 nM	1160 nM	1570 nM	1710 nM	1430 nM	> 2000 nM	> 2000 nM	> 2000 nM	980 nM	> 2000 nM	> 2000 nM	1350 nM	> 10000 nM	1430 nM	> 10000 nM	> 2000 nM	> 2000 nM	870 nM	900 nM	> 2000 nM
CC(=O)c1c([S+]([O-])Cc2ccc(C(F)(F)F)cc2)[nH]c2c(Br)ccc(Cl)c2c1=O (centres unmarked) [Compound 70, 3-acetyl-8-bromo-5-chloro-2-((4-(trifluoromethyl)benzyl)sulfinyl)quinolin-4(1H)-one]	1890 nM	1190 nM	1090 nM	> 2000 nM	1250 nM	1990 nM	> 2000 nM	1010 nM	1030 nM	1610 nM	> 2000 nM	1470 nM	> 10000 nM	1520 nM	> 10000 nM	1140 nM	> 2000 nM	1030 nM	1180 nM	> 2000 nM
CC(=O)c1c([S+]([O-])Cc2ccc(OC(F)(F)F)cc2)[nH]c2c(Br)ccc(Cl)c2c1=O (centres unmarked) [Compound 71, 3-acetyl-8-bromo-5-chloro-2-((4-(trifluoromethoxy)benzyl)sulfinyl)quinolin-4(1H)-one]	> 2000 nM	1230 nM	1740 nM	> 2000 nM	1700 nM	1790 nM	> 2000 nM	> 2000 nM	1460 nM	> 2000 nM	> 2000 nM	1640 nM	> 10000 nM	> 2000 nM	> 10000 nM	> 2000 nM	> 2000 nM	1180 nM	1310 nM	> 2000 nM
CC(=O)c1c([S+]([O-])Cc2ccc(C(F)(F)F)o2)[nH]c2c(Br)ccc(Cl)c2c1=O (centres unmarked) [Compound 72, 3-acetyl-8-bromo-5-chloro-2-(((5-(trifluoromethyl)furan-2-yl)methyl)sulfinyl)quinolin-4(1H)-one]	1520 nM	890 nM	710 nM	1910 nM	1280 nM	1790 nM	1940 nM	720 nM	710 nM	1540 nM	> 2000 nM	1210 nM	> 10000 nM	1180 nM	> 10000 nM	1070 nM	> 2000 nM	730 nM	730 nM	> 2000 nM
CC(=O)c1c([S+]([O-])Cc2ccc(C#N)cc2)[nH]c2c(Br)ccc(Cl)c2c1=O (centres unmarked) [Compound 73, 4-(((3-acetyl-8-bromo-5-chloro-4-oxo-1,4-dihydroquinolin-2-yl)sulfinyl)methyl)benzonitrile]	> 2000 nM	1770 nM	> 2000 nM	> 2000 nM	1870 nM	> 2000 nM	> 2000 nM	> 2000 nM	1520 nM	> 2000 nM	> 2000 nM	> 2000 nM	> 10000 nM	> 2000 nM	> 10000 nM	> 2000 nM	> 2000 nM	1420 nM	1110 nM	> 2000 nM
